Tested on: ob/ob mouse
Assay: Antidiabetic and hypolipaemic effect in the ob/ob mouse
Assay type: in vivo
Settings: dose of 3 mg/kg for 4 days
Text: Mutations in laboratory animals and also different sensitivities to dietary regimens have allowed the development of animal models having non-insulin-dependent diabetes and hyperlipidaemia associated with obesity and with resistance to insulin.
Genetic mice models (ob/ob) (Diabetes, 1982, 31 (1), 1-6) and Zucker (fa/fa) rats have been developed by various laboratories in order to understand the physiopathology of those diseases and test the effectiveness of new antidiabetic compounds (Diabetes, 1983, 32, 830-838).
Antidiabetic and Hypolipaemic Effect in the ob/ob Mouse
The 10-week-old female ob/ob mouse (Harlan) is used for the in vivo tests. The animals are kept in a light-darkness cycle of 12 hours at 25° C. The mouse has a basal hyperglycaemia of 2 g/l. The animals are randomly selected with regard to their glycaemia to form groups of six. […] […] The control groups receive the solvents under the same conditions as the treated groups.
The activity of the products is evaluated by measuring glycaemia 24 hours after the final administration and by measuring body weight daily.

Question: With `CCOC(Cc1ccc(OCCN2CCC(C)(C)c3cc(C(=O)C4CCCCC4)ccc32)cc1)C(=O)O` (stereo not drawn) [3-{4-[2-(6-(Cyclohexylcarbonyl)-4,4-dimethyl-3,4-dihydro-1(2H)-quinolinyl)ethoxy]phenyl}-2-ethoxypropanoic acid] as the compound, how does the reduction in glycaemia read?
Answer: 32%

Question: And the reduction in insulinaemia?
Answer: 56%

Question: And the reduction in triglyceridaemia?
Answer: 57%

— US20090124656A1, “Heterocyclic Oxime Compounds a Process for Their Preparation and Pharmaceutical Compositions Containing Them” (LES LABORATOIRES SERVIER, priority 2005, published 2009)
